Assay results reported in the supplement of paper PMC10627819.

Legend:
S. aureus DSM 20231 [1] = assay: fitness (endpoint OD595 vs no drug) (fraction); higher = more growth
Outline: (§1)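 Fitness is computed from the optical density at which cultures reach stationary phase, divided by the robust mean of no-drug control wells. Any value above 1 is set to 1. Cultures started at OD595 0.01 in 384-well plates with TSB, LB Lennox or CY at 37 °C, and OD595 was read every 30 min for 14 h against a first-reading background.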

S. aureus Newman [2] = assay: as above
Outline: as §1

S. pneumoniae D39V [3] = assay: as above
Outline: as §1

B. subtilis 168 = assay: Bliss interaction score (quartile over a dose matrix) (fitness difference); higher = more antagonism (negative = synergy)
Outline: (§2)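 Values were capped at 1 after dividing OD595 at stationary-phase entry by the plate's robust no-drug mean. This ratio is fitness, and single-drug fitness was inferred from the combination data. The Bliss score is observed minus product-expected fitness, given as quartiles over technical, biological and donor/recipient replicates.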

S. aureus DSM 20231 [4] = assay: as above
Outline: as §2

S. aureus Newman [5] = assay: as above
Outline: as §2

S. pneumoniae D39V [6] = assay: as above
Outline: as §2
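For Bliss interaction score (quartile over a dose matrix) in this document: first quartile when negative (synergy) and third quartile when positive (antagonism).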

CCN(CC)CCOC(=O)c1ccc(N)cc1 [Procaine] + CN[C@H](CC(C)C)C(=O)N[C@H]1C(=O)N[C@@H](CC(N)=O)C(=O)N[C@H]2C(=O)N[C@H]3C(=O)N[C@H](C(=O)N[C@H](C(=O)O)c4cc(O)cc(O)c4-c4cc3ccc4O)[C@H](O)c3ccc(c(Cl)c3)Oc3cc2cc(c3O[C@@H]2O[C@H](CO)[C@@H](O)[C@H](O)[C@H]2O[C@H]2C[C@](C)(N)[C@H](O)[C@H](C)O2)Oc2ccc(cc2Cl)[C@H]1O [Vancomycin]
fitness
Conditions | partner 0.03125 µg/mL | partner 0.0625 µg/mL | partner 0.125 µg/mL | partner 0.1875 µg/mL | partner 0.375 µg/mL | partner 0.75 µg/mL
S. aureus DSM 20231 [1], first compound 85.5 µg/mL | – | – | – | 0.969 | 0.999 | 0.953
S. aureus DSM 20231 [1], first compound 171 µg/mL | – | – | – | 0.953 | ≥ 1 | 0.982
S. aureus DSM 20231 [1], first compound 342 µg/mL | – | – | – | 0.883 | 0.983 | ≥ 1
S. aureus Newman [2], first compound 342 µg/mL | – | – | – | 0.962 | 0.999 | 0.98
S. pneumoniae D39V [3], first compound 85.5 µg/mL | ≥ 1 | 0.963 | 0.742 | – | – | –
S. pneumoniae D39V [3], first compound 171 µg/mL | 0.978 | 0.955 | 0.903 | – | – | –
S. pneumoniae D39V [3], first compound 342 µg/mL | 0.952 | 0.921 | 0.907 | – | – | –

fitness, S. pneumoniae D39V [3], one replicate
Conditions | first compound 85.5 µg/mL | first compound 171 µg/mL | first compound 342 µg/mL
partner 0.25 µg/mL | 0.0963 | 0.383 | 0.674
partner 0.5 µg/mL | 0.0592 | 0.0925 | 0.148

Conditions | Bliss interaction score
B. subtilis 168 | 0.0237
S. aureus DSM 20231 [4] | 0.0492
S. aureus Newman [5] | 0.0558
S. pneumoniae D39V [6] | -0.0761

CCN(CC)CCOC(=O)c1ccc(N)cc1 [Procaine] + Cn1nnc(-c2ccc(-c3ccc(N4C[C@H](CO)OC4=O)cc3F)cn2)n1 [Tedizolid]
fitness
Conditions | first compound 85.5 µg/mL | first compound 171 µg/mL | first compound 342 µg/mL
S. aureus DSM 20231 [1], partner 0.0625 µg/mL | 0.789 | 0.887 | 0.81
S. aureus DSM 20231 [1], partner 0.25 µg/mL | 0.067 | 0.0661 | 0.0739
S. aureus Newman [2], partner 0.0625 µg/mL | ≥ 1 | 0.972 | 0.972
S. aureus Newman [2], partner 0.125 µg/mL | 0.969 | 0.939 | 0.951
S. pneumoniae D39V [3], partner 0.03125 µg/mL | 0.989 | 0.975 | 0.97
S. pneumoniae D39V [3], partner 0.0625 µg/mL | 0.954 | 0.943 | 0.973
S. pneumoniae D39V [3], partner 0.125 µg/mL | 0.803 | 0.862 | 0.796

fitness, S. pneumoniae D39V [3], one replicate
Conditions | first compound 85.5 µg/mL | first compound 171 µg/mL | first compound 342 µg/mL
partner 0.25 µg/mL | 0.67 | 0.744 | 0.695
partner 0.5 µg/mL | 0.282 | 0.311 | 0.353

Conditions | Bliss interaction score
B. subtilis 168 | -0.0545
S. aureus DSM 20231 [4] | -0.0772
S. aureus Newman [5] | 0.0692
S. pneumoniae D39V [6] | -0.0797

Cn1nnc(-c2ccc(-c3ccc(N4C[C@H](CO)OC4=O)cc3F)cn2)n1 [Tedizolid] + CC1=C\[C@@H](O)CC(=O)Cc2nc(co2)C(=O)N2CCC=C2C(=O)O[C@H](C(C)C)[C@H](C)/C=C/C(=O)NC\C=C\1 [Virginiamycin M1]
fitness
Conditions | first compound 0.03125 µg/mL | first compound 0.0625 µg/mL | first compound 0.125 µg/mL | first compound 0.25 µg/mL | first compound 0.5 µg/mL
S. aureus DSM 20231 [1], partner 0.0625 µg/mL | – | 0.839 | 0.579 | 0.194 | –
S. aureus DSM 20231 [1], partner 0.125 µg/mL | – | 0.889 | 0.542 | 0.212 | –
S. aureus DSM 20231 [1], partner 0.25 µg/mL | – | 0.888 | – | 0.102 | –
S. aureus Newman [2], partner 0.0625 µg/mL | – | 0.965 | 0.814 | – | –
S. aureus Newman [2], partner 0.125 µg/mL | – | 0.97 | 0.823 | – | –
S. aureus Newman [2], partner 0.25 µg/mL | – | 0.997 | 0.843 | – | –
S. pneumoniae D39V [3], partner 0.5 µg/mL | 0.972 | 0.962 | 0.807 | – | –
S. pneumoniae D39V [3], partner 1 µg/mL | 0.978 | 0.973 | 0.807 | – | –
S. pneumoniae D39V [3], partner 2 µg/mL | 0.955 | 0.948 | 0.824 | 0.785 | 0.607

fitness, one replicate
Conditions | first compound 0.0625 µg/mL | first compound 0.125 µg/mL | first compound 0.25 µg/mL | first compound 0.5 µg/mL
S. aureus DSM 20231 [1], partner 0.5 µg/mL | 0.676 | 0.31 | 0.0481 | –
S. aureus DSM 20231 [1], partner 1 µg/mL | 0.681 | 0.327 | 0.0496 | –
S. aureus Newman [2], partner 0.5 µg/mL | 0.885 | 0.91 | 0.57 | –
S. aureus Newman [2], partner 1 µg/mL | 0.956 | 0.956 | 0.565 | –
S. aureus Newman [2], partner 2 µg/mL | 0.851 | 0.785 | 0.456 | –
S. pneumoniae D39V [3], partner 0.15 µg/mL | – | 0.905 | 0.835 | 0.534
S. pneumoniae D39V [3], partner 0.3 µg/mL | – | 0.892 | 0.818 | 0.505
S. pneumoniae D39V [3], partner 0.5 µg/mL | – | – | 0.838 | 0.659
S. pneumoniae D39V [3], partner 1 µg/mL | – | – | 0.771 | 0.523

Conditions | Bliss interaction score
B. subtilis 168 | -0.0674
S. aureus DSM 20231 [4] | -0.078
S. aureus Newman [5] | 0.0611
S. pneumoniae D39V [6] | 0.103

Cn1nnc(-c2ccc(-c3ccc(N4C[C@H](CO)OC4=O)cc3F)cn2)n1 [Tedizolid] + CN[C@H](CC(C)C)C(=O)N[C@H]1C(=O)N[C@@H](CC(N)=O)C(=O)N[C@H]2C(=O)N[C@H]3C(=O)N[C@H](C(=O)N[C@H](C(=O)O)c4cc(O)cc(O)c4-c4cc3ccc4O)[C@H](O)c3ccc(c(Cl)c3)Oc3cc2cc(c3O[C@@H]2O[C@H](CO)[C@@H](O)[C@H](O)[C@H]2O[C@H]2C[C@](C)(N)[C@H](O)[C@H](C)O2)Oc2ccc(cc2Cl)[C@H]1O [Vancomycin]
fitness
Conditions | first compound 0.03125 µg/mL | first compound 0.0625 µg/mL | first compound 0.125 µg/mL | first compound 0.25 µg/mL | first compound 0.5 µg/mL
S. aureus DSM 20231 [1], partner 0.1875 µg/mL | – | 0.89 | 0.754 | 0.348 | –
S. aureus DSM 20231 [1], partner 0.375 µg/mL | – | 0.891 | 0.723 | 0.377 | –
S. aureus DSM 20231 [1], partner 0.75 µg/mL | – | 0.924 | 0.867 | 0.397 | –
S. aureus Newman [2], partner 0.1875 µg/mL | – | 0.977 | 0.87 | – | –
S. aureus Newman [2], partner 0.375 µg/mL | – | 0.966 | 0.845 | – | –
S. aureus Newman [2], partner 0.75 µg/mL | – | 0.939 | 0.824 | – | –
S. pneumoniae D39V [3], partner 0.03125 µg/mL | – | – | 0.809 | 0.73 | 0.482
S. pneumoniae D39V [3], partner 0.0625 µg/mL | – | – | 0.819 | 0.718 | 0.473
S. pneumoniae D39V [3], partner 0.125 µg/mL | 0.976 | 0.968 | 0.833 | – | –

Conditions | Bliss interaction score
B. subtilis 168 | 0.0605
S. aureus DSM 20231 [4] | -0.0656
S. aureus Newman [5] | 0.046
S. pneumoniae D39V [6] | 0.107
